In data set [1] the test system is C57BL/6 mice with CCl4-induced acute liver injury. As to the kind of experiment: CCl4-induced acute liver injury mouse model. In kind it is in vivo. To be noted: 1 μmol/kg twice daily, 2 days after CCl4. The protocol: All the animal experiments were carried out according to the ethical guidelines for the Care and Use of Laboratory Animals (Utrecht University, The Netherlands). CCl4 was prepared in olive oil ([…], 63.76 mg/mL) and AP8ii (1 μmol/kg) and R243 (1 μmol/kg) were prepared in hydroxypropyl-β-cyclodextrin (10%) and Kolliphor HS15 (5%) containing MilliQ water (85%). Male C57BL/6 mice (12 weeks old) received a single intraperitoneal injection (IP) of olive oil (healthy n = 9) or 0.2 mL/kg (318.8 mg/kg) CCl4 (vehicle n = 9, AP8 n = 9 and R243 n = 9) on Day 1. On Days 2 and 3, the CCl4-treated mice received vehicle, 1 μmol/kg AP8 (1.157 mg/kg) or 1 μmol/kg R243 (0.35744 mg/kg) twice daily. […] Total alanine aminotransferase (ALT) and aspartate transferase (AST) levels were determined in the plasma samples as per standard biochemical assays.
Cell suspension were prepared from freshly collected liver tissues using the TissueGrinder (TG, Fast Forward Discoveries GmbH, Mannheim, Germany) as detailed earlier. […] Cells were washed 3 times, stained with rat anti-mouse fluorescent antibodies (CD45-APC, CD11b-PE and F4/80-PE/Cy7, 0.2 μg/100 μL, Biolegend) for 1 h, Hoechst 33,342 (10 μg/100 μL, Thermo Fisher) for 30 min, and analyzed within 7 days. […]

Another data set deals with RAW264.7 macrophages. As to the kind of experiment: Alamar Blue cell viability assay, RAW264.7. It counts as cell-based, mouse. To be noted: 10 μmol/L, 24 h, with or without LPS/IFNγ; three independent experiments. The protocol:
To assess the effects of AP8ii on the cell viability, cells were plated in 24-well plates, cultured overnight and incubated with AP8ii or R243 (10 μmol/L) with or without 100 ng/mL LPS and 10 ng/mL IFNγ (for 24 h, cell viability assays were performed using Alamar Blue reagent (Invitrogen, Carlsbad, CA, USA) as per manufacturer's instructions. The results are represented as% cell viability normalized to untreated control cells (at 100%). All measurements were performed in triplicates in three independent experiments.

Data set [2] can be described thus: AP8ii peptide stability in human serum by analytic HPLC. In kind it is in vitro ADME. The note with it: 37 °C. The protocol: Analytic HPLC measurements were conducted in an Agilent 1260 Infinity II Liquid Chromatography system, equipped with a Polaris C18 column and a UV–Vis detector. The samples were analyzed with a mobile phase of MilliQ (solvent A) and acetonitrile (solvent B), both containing 0.1% v/v of formic acid, using a 1 mL/min flow rate within a run of 22 min. The gradient ramp was from 1% solvent B up to 60% solvent B in 15 min, then from 60% solvent B to 99% solvent in 5 min, finally 2 min at 99% of solvent B. Each injection used 50 μL, out of the 150 μL in the vial. Detection was performed at λ = 280 nm. Integration of the signals (e.g., peak area) in the chromatogram was performed using OpenLab CDS (data analysis software).
An adapted protocol based on[43] was followed for analysis. In a vial, 475 μL of 1 mmol/L peptide solution was mixed with 50 μL of human serum (making 0.95 mmol/L peptide in 10 vol% serum). The sample was incubated at 37 °C for increasing time. At 0, 1, 2, 4 and 24 h, an aliquot of 125 μL was taken from the vial, quenched with 50 μL of 10% TFA solution in MilliQ and centrifuged for 1 min at 13,000 rpm. Then 150 μL of the supernatant was taken for analysis. Control samples containing only peptide (e.g., without serum) and only human serum (e.g., without peptide) were included. All measurements were conducted in duplicates. Data of peak absolute area were expressed as mean ± standard deviation (SD).

Data set [3] addresses T1, CCR8 on LPS/IFNγ-activated RAW264.7 macrophages (Mus musculus, UniProt P56484).
T1 construct: endogenous in cells
T1 sequence (P56484 1-353): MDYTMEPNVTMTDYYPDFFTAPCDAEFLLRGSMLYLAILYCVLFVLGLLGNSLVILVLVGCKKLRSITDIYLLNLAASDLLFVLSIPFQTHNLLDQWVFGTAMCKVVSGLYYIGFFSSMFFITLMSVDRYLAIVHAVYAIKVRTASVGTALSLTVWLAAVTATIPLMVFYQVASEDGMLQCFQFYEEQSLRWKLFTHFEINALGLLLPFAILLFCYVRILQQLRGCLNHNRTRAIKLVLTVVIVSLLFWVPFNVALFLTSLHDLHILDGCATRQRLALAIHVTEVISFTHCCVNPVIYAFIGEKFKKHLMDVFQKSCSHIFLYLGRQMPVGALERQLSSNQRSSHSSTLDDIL
The data set can be described thus: Competitive peptide binding study (co-incubation and pre-incubation). On the procedure:
For competitive studies, the peptide binding protocol was used however competition with R243, CCL1 and anti-CCR8 antibody was performed. Two types of competitive studies were performed—co-incubation and pre-incubation where macrophages were either co-incubated with equimolar concentration of R243 (10 μmol/L), CCL1 (100 ng/mL) or anti-CCR8 antibody (5.0 μg/mL, Cat. No. MAB-8324, Novus biologicals, […], USA) and AP8ii (10 μmol/L), or preincubated with R243 (10 μmol/L), CCL1 (100 ng/mL) or anti-CCR8 antibody (5.0 μg/mL) for 2 h followed by addition of AP8ii (10 μmol/L) for an additional 4 h. Finally, images were captured at 10 ×, 20 × and 40 ×, and RhB intensity was analyzed using ImageJ software and normalized to the number of nuclei using DAPI.

Where no end group is shown, it is not given here. A value given as a limit tells only on which side of the number the result lay.

With “YEWRFYHG [AP8ii, Tyr-Glu-Trp-Arg-Phe-Tyr-His-Gly]”, the “body weight during treatment” value in data set [1] is given as “increased”. In the data set with RAW264.7 macrophages, the “toxicity (Alamar blue-based metabolic assay)” value is given as “no significant toxicity”. The remaining at 24 h, 0.95 mmol/L in data set [2] (0.95 mmol/L peptide in 10 vol% human serum, 24 h, TFA quench, analytic HPLC C18, UV 280 nm, peak area, duplicates, read-out: peptide remained intact after 24 h of incubation) was more than 82%. The half-life at 0.95 mmol/L in data set [2] (0.95 mmol/L peptide in 10 vol% human serum, analytic HPLC UV 280 nm, read-out: t1/2 in human serum) is more than 1440 min. Besides, the “stability on exposure to serum (peak absolute area)” value in data set [2] (10 vol% human serum, first 4 h, analytic HPLC UV 280 nm) is listed as “remained stable during the first 4 h”.

B1: CCL1: Human Recombinant I-309 (CCL1), CCR8 ligand (300-37-B, Tebu-bio) (protein, UniProt P22362 24-96, looked up)
C-C motif chemokine 1: KSMQVPFSRCCFSFAEQEIPLRAILCYRNTSSICSNEGLIFKLKRGKEACALDTVGWVQRHRKMLRHCPSKRK
Consider B1, for which the “AP8ii binding blocked, co-incubation study” value in data set [3] (competitor (R243 10 μmol/L, CCL1 100 ng/mL, anti-CCR8 antibody 5.0 μg/mL) co-incubated with RhB-labeled AP8ii 10 μmol/L 4 h) was approximately 20%. Also, the “AP8ii binding blocked, pre-incubation study” value in data set [3] (competitor (R243 10 μmol/L, CCL1 100 ng/mL, anti-CCR8 antibody 5.0 μg/mL) preincubated 2 h, then RhB-labeled AP8ii 10 μmol/L 4 h) is on record as approximately 30%.

Values taken from article PMC12137978, “Design, molecular characterization and therapeutic investigation of a novel CCR8 peptide antagonist that attenuates acute liver injury by inhibiting infiltration and activation of macrophages” (Acta Pharmaceutica Sinica. B, 2025).
